In article PMC8213057, “Targeting ALK2: An Open Science Approach to Developing Therapeutics for the Treatment of Diffuse Intrinsic Pontine Glioma” (Journal of Medicinal Chemistry, 2020):
Where “and” joins values, the source holds several entries; their conditions need not be identical. Equal values may be shown once.

What was measured:
DDR2 = molecular target: T1, DDR2 (Homo sapiens, UniProt Q16832); details: 1 μM; Run 1, Run 2
T1 sequence (Q16832 22-855): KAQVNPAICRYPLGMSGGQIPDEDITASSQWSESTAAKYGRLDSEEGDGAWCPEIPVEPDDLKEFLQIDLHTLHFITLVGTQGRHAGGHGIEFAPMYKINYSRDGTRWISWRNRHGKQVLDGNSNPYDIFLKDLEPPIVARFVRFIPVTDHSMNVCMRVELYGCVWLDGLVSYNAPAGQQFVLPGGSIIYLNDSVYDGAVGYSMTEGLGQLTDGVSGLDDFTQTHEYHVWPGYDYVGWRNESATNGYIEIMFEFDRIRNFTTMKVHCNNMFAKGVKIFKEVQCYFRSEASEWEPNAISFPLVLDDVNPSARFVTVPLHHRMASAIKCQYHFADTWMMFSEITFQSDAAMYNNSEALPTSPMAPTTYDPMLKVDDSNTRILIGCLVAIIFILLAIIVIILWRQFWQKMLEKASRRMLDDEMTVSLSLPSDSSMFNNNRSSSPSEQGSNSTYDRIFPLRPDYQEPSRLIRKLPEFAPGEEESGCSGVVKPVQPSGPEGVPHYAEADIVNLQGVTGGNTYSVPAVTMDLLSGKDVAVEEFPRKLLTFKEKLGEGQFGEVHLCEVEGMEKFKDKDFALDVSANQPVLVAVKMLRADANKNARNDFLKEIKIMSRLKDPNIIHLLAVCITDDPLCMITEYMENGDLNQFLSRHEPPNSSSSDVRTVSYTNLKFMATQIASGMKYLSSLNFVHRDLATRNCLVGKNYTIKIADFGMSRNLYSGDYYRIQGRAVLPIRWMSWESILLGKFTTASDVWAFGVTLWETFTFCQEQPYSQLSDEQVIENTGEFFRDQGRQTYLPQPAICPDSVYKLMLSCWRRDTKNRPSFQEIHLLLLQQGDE

SGK3/SGKL = molecular target: T2, SGK3/SGKL (Homo sapiens, UniProt Q96BR1); details: 1 μM; Run 1, Run 2
T2 sequence (Q96BR1 1-496): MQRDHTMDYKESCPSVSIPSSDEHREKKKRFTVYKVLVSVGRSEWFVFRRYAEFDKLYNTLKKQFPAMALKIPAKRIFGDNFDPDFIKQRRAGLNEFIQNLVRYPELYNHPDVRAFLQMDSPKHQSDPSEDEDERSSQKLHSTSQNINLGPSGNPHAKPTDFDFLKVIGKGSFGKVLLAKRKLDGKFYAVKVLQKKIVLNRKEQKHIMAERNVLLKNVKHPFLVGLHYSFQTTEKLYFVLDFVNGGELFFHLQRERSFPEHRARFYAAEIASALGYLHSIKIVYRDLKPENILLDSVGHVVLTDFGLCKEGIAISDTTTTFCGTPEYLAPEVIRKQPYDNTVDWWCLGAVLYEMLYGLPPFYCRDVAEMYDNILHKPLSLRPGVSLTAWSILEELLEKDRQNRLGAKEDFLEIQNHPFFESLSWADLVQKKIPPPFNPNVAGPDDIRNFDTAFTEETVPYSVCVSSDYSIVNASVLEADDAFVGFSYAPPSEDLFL

WNK1 = WNK1 (Homo sapiens, UniProt Q9H4A3); details: 1 μM; Run 1, Run 2
Chain of WNK1 (Q9H4A3 whole entry, species assumed): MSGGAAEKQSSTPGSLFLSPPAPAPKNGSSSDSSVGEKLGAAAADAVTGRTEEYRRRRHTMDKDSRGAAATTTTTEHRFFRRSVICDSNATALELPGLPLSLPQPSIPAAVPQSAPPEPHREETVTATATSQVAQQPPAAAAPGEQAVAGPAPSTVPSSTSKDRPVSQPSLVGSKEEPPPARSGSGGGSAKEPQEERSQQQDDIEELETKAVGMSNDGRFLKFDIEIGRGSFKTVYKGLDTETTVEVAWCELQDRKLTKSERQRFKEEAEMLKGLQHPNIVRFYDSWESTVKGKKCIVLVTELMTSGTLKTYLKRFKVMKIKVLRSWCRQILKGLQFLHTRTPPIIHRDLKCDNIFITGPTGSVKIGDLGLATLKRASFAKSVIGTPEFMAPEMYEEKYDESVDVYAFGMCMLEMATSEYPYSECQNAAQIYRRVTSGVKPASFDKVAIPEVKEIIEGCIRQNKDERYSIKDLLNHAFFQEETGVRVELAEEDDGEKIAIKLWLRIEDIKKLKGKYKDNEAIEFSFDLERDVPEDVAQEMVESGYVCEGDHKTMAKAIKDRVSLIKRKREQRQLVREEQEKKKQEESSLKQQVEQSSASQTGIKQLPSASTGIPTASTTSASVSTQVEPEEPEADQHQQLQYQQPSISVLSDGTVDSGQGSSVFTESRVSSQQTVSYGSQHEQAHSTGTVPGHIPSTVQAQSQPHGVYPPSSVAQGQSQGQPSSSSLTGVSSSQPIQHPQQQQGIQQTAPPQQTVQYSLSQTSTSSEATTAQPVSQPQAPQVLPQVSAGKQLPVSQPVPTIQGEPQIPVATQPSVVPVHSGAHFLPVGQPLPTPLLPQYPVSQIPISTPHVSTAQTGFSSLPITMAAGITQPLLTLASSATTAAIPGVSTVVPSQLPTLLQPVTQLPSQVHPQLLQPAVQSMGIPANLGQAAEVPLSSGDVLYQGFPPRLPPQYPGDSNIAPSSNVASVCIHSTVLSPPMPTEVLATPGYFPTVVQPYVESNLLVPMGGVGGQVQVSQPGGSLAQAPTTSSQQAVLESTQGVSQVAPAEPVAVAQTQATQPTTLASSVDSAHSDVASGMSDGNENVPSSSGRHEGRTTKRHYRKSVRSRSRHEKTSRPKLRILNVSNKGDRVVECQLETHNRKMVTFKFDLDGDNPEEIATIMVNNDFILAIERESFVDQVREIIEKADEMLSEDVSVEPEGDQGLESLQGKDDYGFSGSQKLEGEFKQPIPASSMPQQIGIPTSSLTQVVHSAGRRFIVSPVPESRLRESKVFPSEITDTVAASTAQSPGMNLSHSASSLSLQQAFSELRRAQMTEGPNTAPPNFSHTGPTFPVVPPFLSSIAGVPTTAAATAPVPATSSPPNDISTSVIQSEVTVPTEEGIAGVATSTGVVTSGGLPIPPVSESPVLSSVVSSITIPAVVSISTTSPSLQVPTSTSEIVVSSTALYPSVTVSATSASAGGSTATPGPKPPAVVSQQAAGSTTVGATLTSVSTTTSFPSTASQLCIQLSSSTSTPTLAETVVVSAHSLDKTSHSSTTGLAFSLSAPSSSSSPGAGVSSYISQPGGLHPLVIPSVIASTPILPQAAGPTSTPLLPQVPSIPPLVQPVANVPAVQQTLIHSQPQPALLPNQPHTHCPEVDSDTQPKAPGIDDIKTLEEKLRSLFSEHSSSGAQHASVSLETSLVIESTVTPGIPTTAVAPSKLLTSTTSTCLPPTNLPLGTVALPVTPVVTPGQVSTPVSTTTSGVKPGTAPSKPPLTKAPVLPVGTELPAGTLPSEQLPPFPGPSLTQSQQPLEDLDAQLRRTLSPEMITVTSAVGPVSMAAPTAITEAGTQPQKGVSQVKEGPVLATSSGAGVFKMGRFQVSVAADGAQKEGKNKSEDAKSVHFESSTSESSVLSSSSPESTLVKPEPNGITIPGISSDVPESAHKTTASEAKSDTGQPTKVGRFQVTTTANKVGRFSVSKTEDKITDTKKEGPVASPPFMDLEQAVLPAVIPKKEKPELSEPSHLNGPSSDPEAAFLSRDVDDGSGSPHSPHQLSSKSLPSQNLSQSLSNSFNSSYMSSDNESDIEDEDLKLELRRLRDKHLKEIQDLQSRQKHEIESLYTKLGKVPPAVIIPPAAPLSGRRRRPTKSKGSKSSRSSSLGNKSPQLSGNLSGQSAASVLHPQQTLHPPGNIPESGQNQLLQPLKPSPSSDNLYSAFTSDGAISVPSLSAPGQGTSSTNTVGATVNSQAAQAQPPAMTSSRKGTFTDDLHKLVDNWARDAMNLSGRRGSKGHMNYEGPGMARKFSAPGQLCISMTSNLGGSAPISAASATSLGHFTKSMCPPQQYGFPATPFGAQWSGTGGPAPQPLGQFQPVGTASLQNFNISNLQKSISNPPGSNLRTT

NEK7 = NEK7 (Homo sapiens, UniProt Q8TDX7); test: biochemical; details: read-out: % enzyme activity, 1 μM; Run 1, Run 2
Chain of NEK7 (Q8TDX7 whole entry): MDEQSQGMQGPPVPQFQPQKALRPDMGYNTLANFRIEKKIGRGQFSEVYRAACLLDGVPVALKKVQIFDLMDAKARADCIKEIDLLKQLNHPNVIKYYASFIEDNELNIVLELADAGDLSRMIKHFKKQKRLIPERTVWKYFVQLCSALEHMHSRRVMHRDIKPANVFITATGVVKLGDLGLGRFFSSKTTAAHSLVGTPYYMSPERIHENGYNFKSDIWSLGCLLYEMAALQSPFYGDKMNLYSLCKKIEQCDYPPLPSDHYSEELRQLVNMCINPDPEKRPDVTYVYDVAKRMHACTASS

TBK1 = molecular target: T3, TBK1 (Homo sapiens, UniProt Q9UHD2); test: biochemical; details: read-out: % enzyme activity, 1 μM; Run 1, Run 2
T3 sequence (Q9UHD2 1-729): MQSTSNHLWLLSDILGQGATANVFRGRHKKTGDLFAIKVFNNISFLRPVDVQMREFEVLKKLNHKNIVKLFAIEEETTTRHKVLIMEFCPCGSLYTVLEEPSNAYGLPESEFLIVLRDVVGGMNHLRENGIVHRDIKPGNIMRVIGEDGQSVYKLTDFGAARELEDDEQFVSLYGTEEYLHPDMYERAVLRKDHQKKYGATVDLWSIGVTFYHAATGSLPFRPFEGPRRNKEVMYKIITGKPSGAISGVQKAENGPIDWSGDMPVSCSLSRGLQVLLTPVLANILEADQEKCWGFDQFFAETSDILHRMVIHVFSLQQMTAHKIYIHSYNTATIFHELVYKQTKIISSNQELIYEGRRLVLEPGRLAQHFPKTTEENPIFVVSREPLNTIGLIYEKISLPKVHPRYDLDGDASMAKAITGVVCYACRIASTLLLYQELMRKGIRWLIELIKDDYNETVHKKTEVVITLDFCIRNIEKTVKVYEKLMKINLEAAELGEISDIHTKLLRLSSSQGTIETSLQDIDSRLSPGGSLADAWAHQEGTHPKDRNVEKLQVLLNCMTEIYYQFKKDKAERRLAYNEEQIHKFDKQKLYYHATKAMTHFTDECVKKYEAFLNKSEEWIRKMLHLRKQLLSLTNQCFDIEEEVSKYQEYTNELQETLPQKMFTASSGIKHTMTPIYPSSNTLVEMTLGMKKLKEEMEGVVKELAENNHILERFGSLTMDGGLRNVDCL

Compound	% enzyme activity at 1 μM (ALK2/ACVR1)	% enzyme activity (DDR2) [%]	% enzyme activity (SGK3/SGKL) [%]	% enzyme activity (WNK1) [%]	remaining activity at 1 µM (NEK7) [%]	remaining activity at 1 µM (TBK1) [%]
COc1cc(-c2cncc(-c3ccc(N4CCN(C)CC4)cc3)c2C)cc(F)c1C(N)=O [Compound 26a, 2-Fluoro-6-methoxy-4-(4-methyl-5-(4-(4-methylpiperazin-1-yl)phenyl)pyridin-3-yl)benzamide]	9.92% and 8.63%	96.68	99.35	107.33	97.6	93.6
COc1cc(-c2cncc(-c3ccc(N4C[C@@H](C)N(C)[C@@H](C)C4)cc3)c2C)cc(F)c1C(N)=O [Compound 26c, 2-Fluoro-6-methoxy-4-(4-methyl-5-(4-((3R,5S)-3,4,5-trimethylpiperazin-1-yl)phenyl)pyridin-3-yl)benzamide]	13.7% and 11.7%	92.27	93.33	102.29	97.4	87.2
